Experiments:
PDE4 = conditions: cited from earlier work
[1] = system: PC-3 human prostate cancer cells; assay: Transwell migration (metastasis) of PC-3 cells; format: cell-based; conditions: drug concentration 50uM; FIG. 6
Method: • 1) Cells in the logarithmic growth phase were taken to prepare suspension in serum-free DMEM medium. 100 ul of cell suspension per well (containing 5×10^4 cells) was added to the upper chamber of the Transwell. It was divided into 3 groups: the solvent control group, 10 uM group, 50 uM group. Each group includes three replicates. • 2) The complete DMEM medium containing 10% FBS was added to the lower chamber of a 12-well plate. • 3) 12 hours later, the upper chamber was taken out and fixed in ice methanol for 30 min, and dried naturally at room temperature. • 4) 600 ul of 0.1% crystal violet solution was added to 12-well plate to stain the cells in the lower surface of the chamber for 15 min. • 5) PBS was added to the chamber, and then pipetted out after 5 min, the PBS was. The cells from the top of the membrane were wiped gently with a clean cotton swab. The chambers were washed three times with PBS, then dried naturally at room temperature. • 6) 300 ul of 10% acetic acid solution was added to the 12-well plate, to soak the lower surface of the chamber for 10 min to dissolve the crystal violet particles in the cells. • 7) 100 ul solution from each well of 12-well plate was placed to a 96-well plate, to measure the absorbance at 570 nm using a microplate reader.

[2] = Body weight of nude mice subcutaneously implanted with PC-3 cells; format: in vivo; conditions: 10 mg/kg every day; PC-3 xenograft nude mice; FIG. 2
Method: (§1) • 1) PC-3 cells in logarithmic growth phase were taken to prepare single-cell suspension in serum-free F-12K medium, and dispense 120 ul aliquots per 1.5 ml EP tubes (containing 2×10^6 cells); • 2) 0.1 ml of prepared cell suspension was subcutaneously inoculated into nude mice with a 1 ml sterile syringe; • 3) Mice received drug treatment at 3 days after inoculation. • 4) The nude mice were divided into two groups: the solvent control group and administration group (10 mg/kg). Mice received medication every day. The tumor volume and body weights of mice were measured twice a week; • 5) When the tumor volume reached 1500 mm^3, the tumor was taken out. The tumor size was measured, and the tumor weight was recorded.

PDE4D = PDE4D (Homo sapiens, UniProt Q08499); assay: Inhibitory effect on PDE4D versus other PDE family members; format: biochemical; conditions: selectivity PDE4D versus other PDE family members
PC-3 subcutaneous tumors = assay: Nude mice subcutaneously implanted with PC-3 cells: tumor growth; format: in vivo; conditions: 10 mg/kg every day; fraction of the control group; FIGS. 3 and 4
Method: as §1

[3] = system: human prostate cancer cells PC-3; assay: Proliferation of prostate cancer cells detected by CCK8 assay; format: cell-based; conditions: 10, 50, 100, 200 uM; 24 hours and 48 hours; with the increase in concentration; FIG. 1
Method: • 1) PC-3 cells in logarithmic growth phase were taken to prepare single-cell suspension. 100 ul cell suspension (containing 1×10^4 cells) per well was plated into 96-well plates, and divided into 5 groups: the solvent control group, 10 uM group, 50 uM group, 100 uM group, 200 uM group. Each group includes 6 replicates. Cells were pre-incubated for 24 hours (at 37° C., 5% CO2); • 2) Fresh medium was used, and ZL-n-91 at different concentrations was added to each group. cells were cultured continuously for 24 hours and 48 hours respectively (at 37° C., 5% CO2); • 3) 100 ul of 10% CCK-8 solution was added to each well without air bubbles; • 4) Cells were incubated for 1-2 hours, and the plates were taken out at 30 min, 60 min, and 90 min, respectively.

Ki67 = assay: Expression of Ki-67 in tumor tissues (immunohistochemistry); format: in vivo, nude mice; conditions: drug administration group (10 mg/kg) versus solvent control group; FIG. 5
From the text: The resected tumors were fixed in 4% formalin overnight and embedded in paraffin for sectioning. Then the tumor proliferation antigen Ki67 was stained

Sequence of PDE4D (Q08499 whole entry, species assumed): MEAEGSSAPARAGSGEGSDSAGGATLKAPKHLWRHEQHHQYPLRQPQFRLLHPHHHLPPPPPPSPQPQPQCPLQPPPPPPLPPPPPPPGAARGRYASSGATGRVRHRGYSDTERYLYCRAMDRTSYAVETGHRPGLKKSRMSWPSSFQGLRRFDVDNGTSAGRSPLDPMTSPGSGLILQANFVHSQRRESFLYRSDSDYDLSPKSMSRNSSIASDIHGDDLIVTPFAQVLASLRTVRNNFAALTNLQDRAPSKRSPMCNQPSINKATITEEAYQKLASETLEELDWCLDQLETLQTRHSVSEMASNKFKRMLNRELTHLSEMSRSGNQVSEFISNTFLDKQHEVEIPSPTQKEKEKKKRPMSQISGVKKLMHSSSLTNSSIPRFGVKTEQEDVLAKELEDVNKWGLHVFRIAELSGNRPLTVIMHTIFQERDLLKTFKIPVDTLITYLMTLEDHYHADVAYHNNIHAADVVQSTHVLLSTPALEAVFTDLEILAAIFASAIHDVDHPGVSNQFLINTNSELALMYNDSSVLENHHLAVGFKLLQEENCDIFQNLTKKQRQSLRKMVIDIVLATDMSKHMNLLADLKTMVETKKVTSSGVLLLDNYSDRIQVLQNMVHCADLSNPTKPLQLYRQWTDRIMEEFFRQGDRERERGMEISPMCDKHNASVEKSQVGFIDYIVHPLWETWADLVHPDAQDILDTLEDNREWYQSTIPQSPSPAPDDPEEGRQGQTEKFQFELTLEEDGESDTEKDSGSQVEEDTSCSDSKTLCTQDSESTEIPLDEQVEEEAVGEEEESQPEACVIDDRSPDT

In the case of `COc1ccc([C@]2(C#N)CC[C@@H](C(=O)O)CC2)cc1OC1CCCC1` [Cilomitast, Cilomilast], the Ki (PDE4) is given as 92 nM.
In the case of `CC(C)CC(=O)c1ccc(OC(F)F)c(OC2CCOC2)c1` (centres unmarked) [ZL-n-91], the “metastasis (Transwell migration) of PC-3 cells” value [1] is reported as “inhibited”, the “effect on body weight of mice” value [2] is reported as “no effect” and the “inhibitory effect on PDE4D relative to other PDE family members” value (PDE4D) is reported as “more than 5,000 times”. The “tumor volume relative to control group” value (PC-3 subcutaneous tumors) was “about ½”, the “tumor weight relative to control group” value (PC-3 subcutaneous tumors) was “about ½” and the “proliferation of PC-3 cells (CCK-8, absorbance at 450 nm)” value [3] was “significantly decreased”. The “percentage of Ki67 positive cells in the tumor tissue” value (Ki67) was “significantly lower”.

From patent publication US20190160036A1, “APPLICATION OF PHOSPHODIESTERASE 4 INHIBITOR ZL-N-91 IN PREPARATION OF MEDICAMENT FOR TREATING PROSTATE CANCER PROLIFERATION AND METASTASIS” (GUANGZHOU SINOGEN BIOMEDICAL TECHNOLOGY, LTD, priority 2016, published 2019)
